From US9034921B2, “Diphenylmethane derivatives as SGLT2 inhibitors” (GREEN CROSS CORPORATION, priority 2011, dated 2015)
pIC50: −log10 of the molar value.

target: human SGLT2 (Homo sapiens (Human), UniProt P31639); assay: Inhibitory effects on human SGLT2 activities (14C-AMG uptake, sodium-dependent glucose transport assay); format: cell-based; details: CHO cells stably expressing hSGLT2, 37° C., 2 h, single determinations
How it was run: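 CHO cells stably expressing hSGLT2 were preincubated 10 min at 37 °C in choline (Na+-free) buffer, then exposed 2 h at 37 °C to compound in Na+ uptake buffer with 8 μM 14C-AMG and 1 mM unlabeled AMG. Radioactivity was scintillation counted; IC50 came from nonlinear regression.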

Chain of human SGLT2 (P31639 whole entry): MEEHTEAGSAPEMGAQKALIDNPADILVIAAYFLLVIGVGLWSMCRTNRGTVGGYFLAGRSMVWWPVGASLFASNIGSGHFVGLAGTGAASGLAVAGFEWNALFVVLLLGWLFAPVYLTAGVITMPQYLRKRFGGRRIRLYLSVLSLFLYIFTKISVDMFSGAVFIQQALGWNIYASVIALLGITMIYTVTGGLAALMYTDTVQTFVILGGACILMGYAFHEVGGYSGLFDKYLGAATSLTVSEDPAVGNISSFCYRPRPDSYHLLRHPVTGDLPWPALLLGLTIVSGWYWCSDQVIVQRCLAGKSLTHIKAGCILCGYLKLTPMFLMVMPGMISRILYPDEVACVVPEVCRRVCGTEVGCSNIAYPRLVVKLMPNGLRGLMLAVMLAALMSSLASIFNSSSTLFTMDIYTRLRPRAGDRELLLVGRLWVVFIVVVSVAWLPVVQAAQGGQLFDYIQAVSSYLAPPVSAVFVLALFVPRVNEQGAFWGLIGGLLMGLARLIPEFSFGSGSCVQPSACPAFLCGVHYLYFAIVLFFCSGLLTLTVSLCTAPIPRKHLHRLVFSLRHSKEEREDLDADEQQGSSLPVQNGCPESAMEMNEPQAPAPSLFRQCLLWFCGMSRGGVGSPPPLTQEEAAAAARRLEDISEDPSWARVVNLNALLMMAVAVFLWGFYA

Row | Structure (SMILES) | pIC50
1 | C=Cc1ccc(Cc2cc([C@@H]3O[C@H](CO)[C@@H](O)[C@H](O)[C@H]3O)c3c(c2Cl)CCO3)cc1 [Example E119, (2S,3R,4R,5S,6R)-2-(4-Chloro-5-(4-vinylbenzyl)-2,3-dihydrobenzofuran-7-yl)-6-(hydroxymethyl)tetrahydro-2H-pyran-3,4,5-triol] | 8.86
2 | OC[C@H]1O[C@@H](c2cc(Cc3ccc(C4CC4)cc3)c(Cl)c3c2OCC3)[C@H](O)[C@@H](O)[C@@H]1O [Example E120, (2S,3R,4R,5S,6R)-2-(4-Chloro-5-(4-cyclopropylbenzyl)-2,3-dihydrobenzofuran-7-yl)-6-(hydroxymethyl)tetrahydro-2H-pyran-3,4,5-triol] | 8.96
3 | OC[C@H]1O[C@@H](c2cc(Cc3ccc(C4CC4)cc3)c(Cl)c3c2OCCC3)[C@H](O)[C@@H](O)[C@@H]1O [Example E121, (2S,3R,4R,5S,6R)-2-(5-Chloro-6-(4-cyclopropylbenzyl)chroman-8-yl)-6-(hydroxymethyl)tetrahydro-2H-pyran-3,4,5-triol] | 9.07
4 | OC[C@H]1O[C@@H](c2cc(Cc3ccc(C(F)(F)F)cc3)c(Cl)c3c2OCC3)[C@H](O)[C@@H](O)[C@@H]1O [Example E122, (2S,3R,4R,5S,6R)-2-(4-Chloro-5-(4-(trifluoromethyl)benzyl)-2,3-dihydrobenzofuran-7-yl)-6-(hydroxymethyl)tetrahydro-2H-pyran-3,4,5-triol] | 8.71
5 | OC[C@H]1O[C@@H](c2cc(Cc3ccc(Cl)cc3)c(Cl)c3c2OCC3)[C@H](O)[C@@H](O)[C@@H]1O [Example E123, (2S,3R,4R,5S,6R)-2-(4-Chloro-5-(4-chlorobenzyl)-2,3-dihydrobenzofuran-7-yl)-6-(hydroxymethyl)tetrahydro-2H-pyran-3,4,5-triol] | 8.74
6 | OC[C@H]1O[C@@H](c2cc(Cc3ccc(C(F)(F)F)cc3)c(Cl)c3c2CCO3)[C@H](O)[C@@H](O)[C@@H]1O [Example E124, (2S,3R,4R,5S,6R)-2-(7-Chloro-6-(4-(trifluoromethyl)benzyl)-2,3-dihydrobenzofuran-4-yl)-6-(hydroxymethyl)tetrahydro-2H-pyran-3,4,5-triol] | 8.90
7 | CCOc1ccc(Cc2cc([C@@H]3O[C@H](C)[C@@H](O)[C@H](O)[C@H]3O)c3c(c2Cl)OCC3)cc1 [Example E125, (2S,3R,4S,5S,6R)-2-(7-Chloro-6-(4-ethoxybenzyl)-2,3-dihydrobenzofuran-4-yl)-6-methyltetrahydro-2H-pyran-3,4,5-triol] | 9.14
8 | CCOc1ccc(Cc2cc([C@@H]3O[C@H](CF)[C@@H](O)[C@H](O)[C@H]3O)c3c(c2Cl)OCC3)cc1 [Example E126, (2S,3R,4R,5S,6S)-2-(7-Chloro-6-(4-ethoxybenzyl)-2,3-dihydrobenzofuran-4-yl)-6-(fluoromethyl)tetrahydro-2H-pyran-3,4,5-triol] | 8.49
9 | CCOc1ccc(Cc2cc([C@@H]3O[C@H](C(C)O)[C@@H](O)[C@H](O)[C@H]3O)c3c(c2Cl)OCC3)cc1 (stereo partly drawn) [Example E127, (2S,3R,4R,5S,6R)-2-(7-Chloro-6-(4-ethoxybenzyl)-2,3-dihydrobenzofuran-4-yl)-6-(1-hydroxyethyl)tetrahydro-2H-pyran-3,4,5-triol] | 8.87
10 | CCOc1ccc(Cc2cc([C@@H]3O[C@H](CO)[C@@H](O)[C@H](O)[C@H]3O)c3c(c2C)OCC3)cc1 [Example E129, (2S,3R,4R,5S,6R)-2-(6-(4-Ethoxybenzyl)-7-methyl-2,3-dihydrobenzofuran-4-yl)-6-(hydroxymethyl)tetrahydro-2H-pyran-3,4,5-triol] | 8.89
11 | COc1ccc(Cc2cc([C@@H]3O[C@H](CO)[C@@H](O)[C@H](O)[C@H]3O)c3c(c2Cl)OC(C)C3)cc1 (stereo partly drawn) [Example E130, (2S,3R,4R,5S,6R)-2-(7-Chloro-6-(4-methoxybenzyl)-2-methyl-2,3-dihydrobenzofuran-4-yl)-6-(hydroxymethyl)tetrahydro-2H-pyran-3,4,5-triol] | 8.75
12 | COc1ccc(Cc2cc([C@@H]3O[C@H](CO)[C@@H](O)[C@H](O)[C@H]3O)c3c(c2Cl)CC(C)O3)cc1 (stereo partly drawn) [Example E131, (2S,3R,4R,5S,6R)-2-(4-Chloro-5-(4-methoxybenzyl)-2-methyl-2,3-dihydrobenzofuran-7-yl)-6-(hydroxymethyl)tetrahydro-2H-pyran-3,4,5-triol] | 8.99
13 | CCc1ccc(Cc2cc([C@@H]3O[C@H](CO)[C@@H](O)[C@H](O)[C@H]3O)c3c(c2Cl)CC(C)O3)cc1 (stereo partly drawn) [Example E132, (2S,3R,4R,5S,6R)-2-(4-Chloro-5-(4-ethylbenzyl)-2-methyl-2,3-dihydrobenzofuran-7-yl)-6-(hydroxymethyl)tetrahydro-2H-pyran-3,4,5-triol] | 9.15
14 | CC1Cc2c(Cl)c(Cc3ccc(C4CC4)cc3)cc([C@@H]3O[C@H](CO)[C@@H](O)[C@H](O)[C@H]3O)c2O1 (stereo partly drawn) [Example E133, (2S,3R,4R,5S,6R)-2-(4-Chloro-5-(4-cyclopropylbenzyl)-2-methyl-2,3-dihydrobenzofuran-7-yl)-6-(hydroxymethyl)tetrahydro-2H-pyran-3,4,5-triol] | 8.95
15 | CCCc1ccc(Cc2cc([C@@H]3O[C@H](CO)[C@@H](O)[C@H](O)[C@H]3O)c3c(c2Cl)CC(C)O3)cc1 (stereo partly drawn) [Example E134, (2S,3R,4R,5S,6R)-2-(4-Chloro-2-methyl-5-(4-propylbenzyl)-2,3-dihydrobenzofuran-7-yl)-6-(hydroxymethyl)tetrahydro-2H-pyran-3,4,5-triol] | 9.05
16 | CCOc1ccc(Cc2cc([C@@H]3O[C@H](CO)[C@@H](O)[C@H](O)[C@H]3O)c3c(c2Cl)OC(C)C3)cc1 (stereo partly drawn) [Example E135, (2S,3R,4R,5S,6R)-2-(7-Chloro-6-(4-ethoxybenzyl)-2-methyl-2,3-dihydrobenzofuran-4-yl)-6-(hydroxymethyl)tetrahydro-2H-pyran-3,4,5-triol] | 8.78
17 | CCc1ccc(Cc2cc([C@@H]3O[C@H](CO)[C@@H](O)[C@H](O)[C@H]3O)c3c(c2Cl)OC(C)C3)cc1 (stereo partly drawn) [Example E136, (2S,3R,4R,5S,6R)-2-(7-Chloro-6-(4-ethylbenzyl)-2-methyl-2,3-dihydrobenzofuran-4-yl)-6-(hydroxymethyl)tetrahydro-2H-pyran-3,4,5-triol] | 9.08
18 | C=Cc1ccc(Cc2cc([C@@H]3O[C@H](CO)[C@@H](O)[C@H](O)[C@H]3O)c3c(c2Cl)OC(C)C3)cc1 (stereo partly drawn) [Example E137, (2S,3R,4R,5S,6R)-2-(7-Chloro-2-methyl-6-(4-vinylbenzyl)-2,3-dihydrobenzofuran-4-yl)-6-(hydroxymethyl)tetrahydro-2H-pyran-3,4,5-triol] | 9.00
19 | CC1Cc2c([C@@H]3O[C@H](CO)[C@@H](O)[C@H](O)[C@H]3O)cc(Cc3ccc(C4CC4)cc3)c(Cl)c2O1 (stereo partly drawn) [Example E138, (2S,3R,4R,5S,6R)-2-(7-Chloro-6-(4-cyclopropylbenzyl)-2-methyl-2,3-dihydrobenzofuran-4-yl)-6-(hydroxymethyl)tetrahydro-2H-pyran-3,4,5-triol] | 8.95
20 | Cc1ccc(Cc2cc([C@@H]3O[C@H](CO)[C@@H](O)[C@H](O)[C@H]3O)c3c(c2Cl)CCC3)cc1 [Example E139, (2S,3R,4R,5S,6R)-2-(7-Chloro-6-(4-methylbenzyl)-2,3-dihydro-1H-inden-4-yl)-6-(hydroxymethyl)tetrahydro-2H-pyran-3,4,5-triol] | 9.09
21 | CNc1ccc(Cc2cc([C@@H]3O[C@H](CO)[C@@H](O)[C@H](O)[C@H]3O)c3c(c2Cl)CCC3)cc1 [Example E140, (2S,3R,4R,5S,6R)-2-(7-Chloro-6-(4-(methylamino)benzyl)-2,3-dihydro-1H-inden-4-yl)-6-(hydroxymethyl)tetrahydro-2H-pyran-3,4,5-triol 2,2,2-trifluoroacetate] | 8.87
22 | CNc1ccc(Cc2cc([C@@H]3O[C@H](CO)[C@@H](O)[C@H](O)[C@H]3O)c3c(c2Cl)OCC3)cc1 [Example E141, (2S,3R,4R,5S,6R)-2-(7-Chloro-6-(4-(methylamino)benzyl)-2,3-dihydrobenzofuran-4-yl)-6-(hydroxymethyl)tetrahydro-2H-pyran-3,4,5-triol 2,2,2-trifluoroacetate] | 8.55
23 | COc1ccc(Cc2cc([C@@H]3O[C@H](CO)[C@@H](O)[C@H](O)[C@H]3O)c3c(c2Cl)CC(C)S3)cc1 (stereo partly drawn) [Example E142, (2S,3R,4R,5S,6R)-2-(4-Chloro-5-(4-methoxybenzyl)-2-methyl-2,3-dihydrobenzo[b]thiophen-7-yl)-6-(hydroxymethyl)tetrahydro-2H-pyran-3,4,5-triol] | 8.96
24 | CCOc1ccc(Cc2cc([C@@H]3O[C@H](CO)[C@@H](O)[C@H](O)[C@H]3O)c3c(c2Cl)CC(C)S3)cc1 (stereo partly drawn) [Example E143, (2S,3R,4R,5S,6R)-2-(4-Chloro-5-(4-ethoxybenzyl)-2-methyl-2,3-dihydrobenzo[b]thiophen-7-yl)-6-(hydroxymethyl)tetrahydro-2H-pyran-3,4,5-triol] | 8.99
25 | CCc1ccc(Cc2cc([C@@H]3O[C@H](CO)[C@@H](O)[C@H](O)[C@H]3O)c3c(c2Cl)CC(C)S3)cc1 (stereo partly drawn) [Example E144, (2S,3R,4R,5S,6R)-2-(4-Chloro-5-(4-ethylbenzyl)-2-methyl-2,3-dihydrobenzo[b]thiophen-7-yl)-6-(hydroxymethyl)tetrahydro-2H-pyran-3,4,5-triol] | 9.01
26 | CCOc1ccc(Cc2cc([C@@H]3O[C@H](SC)[C@@H](O)[C@H](O)[C@H]3O)c3c(c2Cl)CC(C)O3)cc1 (stereo partly drawn) [Example E145, (2S,3R,4R,5S,6R)-2-(4-Chloro-5-(4-ethoxybenzyl)-2-methyl-2,3-dihydrobenzofuran-7-yl)-6-(methylthio)tetrahydro-2H-pyran-3,4,5-triol] | 9.16
27 | CCOc1ccc(Cc2cc([C@@H]3O[C@H](S(C)(=O)=O)[C@@H](O)[C@H](O)[C@H]3O)c3c(c2Cl)CC(C)O3)cc1 (stereo partly drawn) [Example E146, (2S,3R,4R,5S,6R)-2-(4-Chloro-5-(4-ethoxybenzyl)-2-methyl-2,3-dihydrobenzofuran-7-yl)-6-(methylsulfonyl)tetrahydro-2H-pyran-3,4,5-triol] | 8.46
